One may read the half-life as the time needed for the level to fall by half in the phase considered. The term IC50 denotes the midpoint of a concentration-inhibition curve.

Data set [1] is described as follows: Half life in CD1 mouse pooled liver microsomes assessed as parent compound remaining measured up to 60 mins in presence of NADPH by LC-MS/MS analysis. As to conditions: for half-life: CD1, mouse, pooled liver microsomes. The data set is classed as ADME, Microsome. For orientation: Microsomes from liver hold many membrane-bound enzymes, among them those of drug oxidation.

Another data set addresses T1, Histone deacetylase 8 (Homo sapiens, UniProt Q9BY41).
T1 sequence (Q9BY41 whole entry): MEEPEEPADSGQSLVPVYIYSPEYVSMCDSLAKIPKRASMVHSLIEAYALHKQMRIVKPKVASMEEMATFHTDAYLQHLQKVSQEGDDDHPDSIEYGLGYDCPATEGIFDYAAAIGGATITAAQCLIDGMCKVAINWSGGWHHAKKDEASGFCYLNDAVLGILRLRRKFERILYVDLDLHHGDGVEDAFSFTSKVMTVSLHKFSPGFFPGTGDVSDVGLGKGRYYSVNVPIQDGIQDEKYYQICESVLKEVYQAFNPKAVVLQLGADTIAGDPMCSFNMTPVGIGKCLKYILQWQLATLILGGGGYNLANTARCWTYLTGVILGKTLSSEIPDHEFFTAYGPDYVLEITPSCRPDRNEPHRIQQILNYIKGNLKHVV

Data set [2] addresses T2, Histone deacetylase 1 (Homo sapiens, UniProt Q13547).
Description: Inhibition of recombinant human HDAC1 using Ac-GAK(Ac)-AMC as substrate preincubated for 10 mins followed by substrate addition and measured after 30 mins by fluorescence-based assay
The target of data set [3] is T3, Protein deacetylase HDAC6 (Mus musculus) (UniProt Q9Z2V5).
T3 sequence (whole entry): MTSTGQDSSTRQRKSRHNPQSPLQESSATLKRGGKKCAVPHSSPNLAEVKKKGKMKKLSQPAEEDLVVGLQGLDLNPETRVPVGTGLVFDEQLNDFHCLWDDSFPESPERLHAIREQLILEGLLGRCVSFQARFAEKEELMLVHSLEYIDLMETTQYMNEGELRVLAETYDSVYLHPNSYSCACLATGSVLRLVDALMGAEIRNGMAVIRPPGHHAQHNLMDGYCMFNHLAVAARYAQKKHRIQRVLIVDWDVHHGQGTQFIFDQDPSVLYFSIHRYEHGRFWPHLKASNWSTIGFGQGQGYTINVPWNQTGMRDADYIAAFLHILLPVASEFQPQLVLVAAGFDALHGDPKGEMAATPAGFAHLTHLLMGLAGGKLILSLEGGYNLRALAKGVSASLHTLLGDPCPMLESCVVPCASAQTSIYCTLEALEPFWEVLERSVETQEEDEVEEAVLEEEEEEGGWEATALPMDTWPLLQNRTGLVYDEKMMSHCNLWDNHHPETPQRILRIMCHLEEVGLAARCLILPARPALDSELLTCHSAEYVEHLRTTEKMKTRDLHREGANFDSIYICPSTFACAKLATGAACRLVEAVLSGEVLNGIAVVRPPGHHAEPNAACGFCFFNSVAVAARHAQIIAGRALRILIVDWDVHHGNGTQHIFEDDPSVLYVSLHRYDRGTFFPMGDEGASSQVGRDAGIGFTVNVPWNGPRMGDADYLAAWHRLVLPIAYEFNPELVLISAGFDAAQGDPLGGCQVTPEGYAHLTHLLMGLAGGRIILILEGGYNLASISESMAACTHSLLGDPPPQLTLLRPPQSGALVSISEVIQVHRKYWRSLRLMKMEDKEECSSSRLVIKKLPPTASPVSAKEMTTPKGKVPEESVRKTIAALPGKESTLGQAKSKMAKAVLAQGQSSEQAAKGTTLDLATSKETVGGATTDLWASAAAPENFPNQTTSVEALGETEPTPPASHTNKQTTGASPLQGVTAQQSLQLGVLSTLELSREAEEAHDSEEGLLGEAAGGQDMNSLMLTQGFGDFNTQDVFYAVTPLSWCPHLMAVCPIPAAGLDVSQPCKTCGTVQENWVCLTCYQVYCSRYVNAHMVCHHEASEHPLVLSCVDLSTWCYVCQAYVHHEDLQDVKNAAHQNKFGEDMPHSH
In words: Inhibition of HDAC6 in mouse Neuro2a cells assessed as fold increase in ratio of acetylated alpha-tubulin to alpha tubulin at 0.01 uM incubated for overnight by Western blot analysis. As to conditions: time 12.0 hrs. The data set is classed as cell-based. In general terms: Immunoblotting shows a protein as a band on a membrane.

The target of data set [4] is T3, Protein deacetylase HDAC6 (Mus musculus). In words: Inhibition of HDAC6 in mouse Neuro2a cells assessed as fold increase in ratio of acetylated alpha-tubulin to alpha tubulin at 1 uM incubated for overnight by Western blot analysis. In kind it is cell-based. As to conditions: time 12.0 hrs.
Data set [5] is described as follows: Stability in human pooled liver microsomes assessed as parent compound remaining measured at 60 mins in presence of NADPH by LC-MS/MS analysis. In kind it is ADME, Microsome. To be noted: pooled liver microsomes, read-out: Stabilty.
Data set [6] in a line: Half life in human pooled liver microsomes assessed as parent compound remaining measured up to 60 mins in presence of NADPH by LC-MS/MS analysis. In kind it is ADME, Microsome. As to conditions: pooled liver microsomes.
The target in data set [7] is T4, Protein deacetylase HDAC6 (Homo sapiens, UniProt Q9UBN7).
T4 sequence (Q9UBN7 whole entry): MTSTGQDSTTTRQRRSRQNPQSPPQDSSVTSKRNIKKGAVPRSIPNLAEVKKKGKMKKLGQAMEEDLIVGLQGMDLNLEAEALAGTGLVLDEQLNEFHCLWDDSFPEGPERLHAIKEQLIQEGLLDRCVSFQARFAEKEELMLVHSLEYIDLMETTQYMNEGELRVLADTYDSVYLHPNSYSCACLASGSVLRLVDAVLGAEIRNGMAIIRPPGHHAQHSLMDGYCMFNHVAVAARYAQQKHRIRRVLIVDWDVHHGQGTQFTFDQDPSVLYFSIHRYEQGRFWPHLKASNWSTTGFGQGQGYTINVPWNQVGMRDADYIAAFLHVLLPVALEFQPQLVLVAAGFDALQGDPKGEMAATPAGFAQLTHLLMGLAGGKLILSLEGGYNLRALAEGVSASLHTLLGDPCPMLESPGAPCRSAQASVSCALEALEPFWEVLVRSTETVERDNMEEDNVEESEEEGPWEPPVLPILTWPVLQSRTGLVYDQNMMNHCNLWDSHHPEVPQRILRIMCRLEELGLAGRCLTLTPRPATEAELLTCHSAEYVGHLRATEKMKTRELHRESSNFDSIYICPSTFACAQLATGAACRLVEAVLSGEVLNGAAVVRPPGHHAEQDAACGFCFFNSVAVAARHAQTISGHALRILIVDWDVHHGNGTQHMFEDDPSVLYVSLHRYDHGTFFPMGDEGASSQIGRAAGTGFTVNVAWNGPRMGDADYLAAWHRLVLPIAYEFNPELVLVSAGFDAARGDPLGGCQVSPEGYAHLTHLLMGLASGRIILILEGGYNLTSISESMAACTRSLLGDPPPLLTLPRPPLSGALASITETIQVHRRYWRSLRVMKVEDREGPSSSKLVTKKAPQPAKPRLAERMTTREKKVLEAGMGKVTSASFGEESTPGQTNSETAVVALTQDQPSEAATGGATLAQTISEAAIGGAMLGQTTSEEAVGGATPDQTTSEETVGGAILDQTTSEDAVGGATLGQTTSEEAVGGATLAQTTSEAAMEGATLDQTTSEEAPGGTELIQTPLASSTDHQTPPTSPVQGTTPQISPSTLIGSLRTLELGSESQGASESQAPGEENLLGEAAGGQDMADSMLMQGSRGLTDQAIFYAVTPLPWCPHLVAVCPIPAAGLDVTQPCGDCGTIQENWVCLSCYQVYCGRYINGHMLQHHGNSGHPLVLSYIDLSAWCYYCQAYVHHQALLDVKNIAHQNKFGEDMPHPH
Description: Inhibition of recombinant human HDAC6 using Ac-GAK(Ac)-AMC as substrate preincubated for 10 mins followed by substrate addition and measured after 30 mins by fluorescence-based assay

A short description of data set [8]: Stability in CD1 mouse pooled liver microsomes assessed as parent compound remaining measured at 60 mins in presence of NADPH by LC-MS/MS analysis. In kind it is ADME, Microsome. As to conditions: for remaining at 1 h: CD1, mouse, pooled liver microsomes, read-out: Stabilty.
Data set [9] deals with T2, Histone deacetylase 1. In words: Inhibition of full length recombinant C-terminal FLAG-His-tagged human HDAC1 expressed in baculovirus infected Sf21 insect cells using RHK-K(Ac)-AMC peptide as substrate measured after 60 mins by fluorimetry analysis.
The target in data set [10] is T4, Protein deacetylase HDAC6. In words: biochemical.
Description: Inhibition of full length recombinant N-terminal GST-tagged human HDAC6 expressed in baculovirus infected Sf9 insect cells using RHK-K(Ac)-AMC peptide as substrate measured after 90 mins by fluorimetry analysis
For the next data set, the species on record is Homo sapiens. As to the kind of experiment: Selectivity index, ratio of IC50 for full length recombinant C-terminal FLAG-His-tagged human HDAC1 expressed in baculovirus infected Sf21 insect cells using RHK-K(Ac)-AMC peptide as substrate measured after 60 mins by fluorimetry analysis to IC50 for full length recombinant N-terminal GST-tagged ….

T2 sequence (Q13547 whole entry): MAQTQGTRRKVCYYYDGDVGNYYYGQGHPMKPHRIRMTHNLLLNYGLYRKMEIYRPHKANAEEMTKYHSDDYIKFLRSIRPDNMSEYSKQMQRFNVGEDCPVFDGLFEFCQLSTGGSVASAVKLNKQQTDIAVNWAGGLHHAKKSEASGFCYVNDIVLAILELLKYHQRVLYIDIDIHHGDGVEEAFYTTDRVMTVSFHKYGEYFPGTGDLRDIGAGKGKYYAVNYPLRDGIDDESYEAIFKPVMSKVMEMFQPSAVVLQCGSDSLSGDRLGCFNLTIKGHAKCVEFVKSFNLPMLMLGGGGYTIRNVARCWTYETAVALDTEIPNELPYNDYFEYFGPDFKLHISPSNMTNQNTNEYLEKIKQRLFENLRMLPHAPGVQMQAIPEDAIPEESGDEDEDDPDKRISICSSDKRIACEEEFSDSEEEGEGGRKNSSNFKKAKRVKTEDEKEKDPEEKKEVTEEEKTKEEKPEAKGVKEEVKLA
Description for Histone deacetylase 8: Inhibition of recombinant human HDAC8 using Boc-Lys(TFA)-AMC as substrate preincubated for 10 mins followed by substrate addition and measured after 30 mins by fluorescence-based assay
Description for Homo sapiens: Selectivity index, ratio of IC50 for full length recombinant C-terminal FLAG-His-tagged human HDAC1 expressed in baculovirus infected Sf21 insect cells using RHK-K(Ac)-AMC peptide as substrate measured after 60 mins by fluorimetry analysis to IC50 for full length recombinant N-terminal GST-tagged human HDAC6 expressed in baculovirus infected Sf9 insect cells using RHK-K(Ac)-AMC peptide as substrate measured after 90 mins by fluorimetry analysis

Take `O=C(NO)c1ccc(CN2CCCCc3cc(-c4cc[nH]n4)ccc32)cc1`: the results for the half-life in data set [1] and in data set [6] were 0.305 h and 0.37 h, respectively. Besides, the half-maximal inhibitory concentration (IC50) against Histone deacetylase 8 stood at 2820 nM; on Histone deacetylase 1 [2] it was 1080 nM; in data set [7], 17 nM. In addition, the fold change (FC) was found to be 0.95 in data set [3] and 1.78 in data set [4]. Besides, the remaining at 1 h turned out to be 15% in data set [5] and 10.1% in data set [8].
`O=C(NO)c1ccc(CN2C(=O)CCCc3cc(Cl)ccc32)cc1`: the half-life was 1.83 h in data set [1] and 12 h in data set [6]. In addition, the IC50 against Histone deacetylase 8 was 1170 nM; against Histone deacetylase 1 [2], 126 nM; in [7] it was 0.8 nM. The fold change (FC) in data set [3] came out at 2.81; in data set [4], 1.73. For the same molecule, the remaining at 1 h came to 95.3% in data set [5] and 68.1% in data set [8].
Turning to `O=C(NO)c1ccc(CN2C(=O)CCc3cc(Cl)ccc32)cc1`, the t1/2 in [1] (mouse, microsomes, 1 h) came out at 29.05 h. Besides, the values for the IC50 (at Histone deacetylase 8; against Histone deacetylase 1 [2]; in data set [7]) were 2080 nM, 276 nM and 2.9 nM, respectively. The fold change (FC) in [3] worked out at 0.93; in [4], 1.51. In addition, the remaining at 1 h in data set [5] was found to be 92.6%. Also, the half-life in data set [6] stood at 9.62 h. Besides, in data set [8] (mouse, microsomes, 1 h), the Stabilty was found to be 77.7%.
`O=C(NO)c1ccc(CN2CCCc3ccccc32)cc1`: the half-life in data set [1] amounted to 0.673 h; in [6] it was 3.02 h. Moreover, the remaining at 1 h in data set [5] amounted to 73%; in data set [8] it was 34.1%. Further, the concentration for half-maximal inhibition (IC50) at Histone deacetylase 1 [9] is 15 nM; in [10], 11000 nM. Also, the Ratio IC50 in the data set filed under Homo sapiens came out at 733.
Regarding `O=C(NO)c1ccc(CN2CCCCc3ccccc32)cc1`, the half-life in [1] amounted to 0.66 h; in data set [6], 4.03 h. In addition, the IC50 was 5610 nM against Histone deacetylase 8, 1320 nM against Histone deacetylase 1 [2] and 5 nM in [7]. Further, the fold change (FC) in data set [3] is 0.98; in data set [4], 0.78. Besides, the figures for the remaining at 1 h in data set [5] and in [8] were 83.9% and 34.7%, respectively.

Values taken from ChEMBL document CHEMBL4823254, “Tetrahydroquinoline-Capped Histone Deacetylase 6 Inhibitor SW-101 Ameliorates Pathological Phenotypes in a Charcot-Marie-Tooth Type 2A Mouse Model” (J Med Chem, 2021).
